One compound from patent US20250115582A1, “MOLECULAR GLUE DEGRADERS AND METHODS OF USING THE SAME” (Monte Rosa Therapeutics, Inc., priority 2022, published 2025) can be followed below.

The test has as its target T1, CK1a (Homo sapiens, UniProt P48729+Q96SW2).
T1 construct: host or cells: HEK293 and HEK293 CRBN knock-out clone B2 (generated internally)
As to the kind of experiment: Western blot assay of CK1a levels in HEK293 and HEK293 CRBN knock-out cells. It is filed as cell-based. The conditions noted are these: 0.1, 1, 10 μM, 24 hours. On the procedure:
FIG. 1 depicts effects of Compound 147 on CK1a levels in an HEK293 cell line in comparison to effects of Compound 147 on CK1a levels in a cereblon (CRBN) knock-out HEK293 cell line.
HEK293 cell line was purchased from ATCC (CRL-1573). HEK293 CRBN knock out (k/o) cell line (B2) was generated internally using CRISPR/Cas9 method and clonally expanded. Cells were plated at 2×10^5 cells per well in 6-well tissue culture plates (VWR) in 2 ml of DMEM media (Gibco) containing 10% FBS (Gibco), and incubated for 16 hours at 37° C., 5% CO2. Compounds were added to final concentration of 0.1 μM, 1 μM, 10 μM (DMSO concentration was kept constant at 0.1%), following incubation at 37° C., 5% CO2 for additional 24 hours. Cell lysis was performed using RIPA buffer (Pierce) containing Halt™ Protease Inhibitor Cocktail (ThermoFisher Scientific). Lysates were boiled at 95° C. for 10 minutes and 12 μg of protein lysate per sample was resolved by SDS-PAGE using 12% gels (BioRad) and transferred to nitrocellulose membrane (BioRad). Membranes were blocked using LI-COR blocking buffer (LI-COR) at room temperature for 1 hour, followed by overnight incubation with rabbit anti-CK1a (Abcam ab206652), rabbit anti-CRBN (Sigma HPA045910) and mouse anti-α-tubulin (Sigma T9026) antibodies at 4° C. […]

T1 sequence (P48729 whole entry): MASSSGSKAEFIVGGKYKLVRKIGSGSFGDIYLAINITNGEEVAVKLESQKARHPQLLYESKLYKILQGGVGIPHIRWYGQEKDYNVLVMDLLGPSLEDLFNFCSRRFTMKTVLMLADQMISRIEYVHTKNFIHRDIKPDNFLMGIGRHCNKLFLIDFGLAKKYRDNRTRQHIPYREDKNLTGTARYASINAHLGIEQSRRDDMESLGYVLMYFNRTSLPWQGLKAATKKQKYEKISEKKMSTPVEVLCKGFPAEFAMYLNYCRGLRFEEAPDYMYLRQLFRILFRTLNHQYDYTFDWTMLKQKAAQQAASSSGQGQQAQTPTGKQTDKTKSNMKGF
T1 sequence (Q96SW2 whole entry): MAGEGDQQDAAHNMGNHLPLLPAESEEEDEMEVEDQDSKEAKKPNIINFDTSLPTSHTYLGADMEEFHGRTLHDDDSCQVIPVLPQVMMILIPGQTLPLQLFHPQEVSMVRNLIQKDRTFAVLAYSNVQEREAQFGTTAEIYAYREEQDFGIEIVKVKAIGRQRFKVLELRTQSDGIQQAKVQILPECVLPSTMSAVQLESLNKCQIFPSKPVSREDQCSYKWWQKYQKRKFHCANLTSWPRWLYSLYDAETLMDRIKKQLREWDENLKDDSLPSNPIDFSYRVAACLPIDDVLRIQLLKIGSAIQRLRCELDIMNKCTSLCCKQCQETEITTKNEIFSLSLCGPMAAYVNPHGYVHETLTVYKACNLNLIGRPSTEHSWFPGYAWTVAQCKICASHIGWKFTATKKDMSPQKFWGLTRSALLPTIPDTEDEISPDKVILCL
T1 sequence (Q16531 2-1140 partner limits assumed): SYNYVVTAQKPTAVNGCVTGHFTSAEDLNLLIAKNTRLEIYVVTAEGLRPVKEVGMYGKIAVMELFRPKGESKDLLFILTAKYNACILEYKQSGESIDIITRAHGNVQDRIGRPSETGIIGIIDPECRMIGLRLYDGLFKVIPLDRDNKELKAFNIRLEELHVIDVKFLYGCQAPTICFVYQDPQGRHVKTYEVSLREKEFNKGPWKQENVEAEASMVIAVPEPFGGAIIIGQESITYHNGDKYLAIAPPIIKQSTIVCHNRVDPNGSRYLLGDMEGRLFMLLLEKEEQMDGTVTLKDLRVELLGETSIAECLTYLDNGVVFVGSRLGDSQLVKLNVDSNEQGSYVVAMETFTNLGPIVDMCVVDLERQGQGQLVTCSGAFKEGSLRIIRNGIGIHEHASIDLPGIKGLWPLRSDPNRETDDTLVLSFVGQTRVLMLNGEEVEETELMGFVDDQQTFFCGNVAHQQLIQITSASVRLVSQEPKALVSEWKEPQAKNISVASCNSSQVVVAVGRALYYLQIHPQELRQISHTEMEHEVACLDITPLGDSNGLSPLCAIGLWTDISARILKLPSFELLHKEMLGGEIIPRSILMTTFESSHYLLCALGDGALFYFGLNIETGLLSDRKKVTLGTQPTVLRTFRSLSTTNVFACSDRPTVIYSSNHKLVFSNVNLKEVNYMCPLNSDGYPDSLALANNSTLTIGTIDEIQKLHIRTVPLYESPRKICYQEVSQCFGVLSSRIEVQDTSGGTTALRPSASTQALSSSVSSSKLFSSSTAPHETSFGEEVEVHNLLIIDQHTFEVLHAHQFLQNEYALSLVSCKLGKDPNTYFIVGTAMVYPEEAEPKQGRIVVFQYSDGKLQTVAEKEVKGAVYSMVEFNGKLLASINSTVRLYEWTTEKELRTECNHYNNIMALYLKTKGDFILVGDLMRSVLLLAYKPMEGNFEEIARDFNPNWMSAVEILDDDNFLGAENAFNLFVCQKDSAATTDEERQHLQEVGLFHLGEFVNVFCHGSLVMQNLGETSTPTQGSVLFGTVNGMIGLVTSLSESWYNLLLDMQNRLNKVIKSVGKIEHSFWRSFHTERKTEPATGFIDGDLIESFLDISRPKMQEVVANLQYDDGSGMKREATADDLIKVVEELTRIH

In the case of `O=C1CCC(N2Cc3cc(NC(=O)c4ccc(Cl)cc4)ccc3C2=O)C(=O)N1` (centres unmarked) [Compound 147], the “CK1a levels in cereblon (CRBN) knock-out HEK293 cell line (Western blot, FIG. 1)” value (HEK293 CRBN knock-out cell line) is recorded as “no effect on CK1a levels”. Further, the “CK1a levels in HEK293 cell line (Western blot, FIG. 1)” value (HEK293 cell line, cereblon present) is recorded as “decreases CK1a levels”.
